{"source": "patent US20230210108A1", "about": "“ANTIMICROBIAL COATING FOR POLYMERIC FOOD PACKAGING” (VACOPAK INDUSTRIES LTD., priority 2020, published 2023)", "key": {"[1]": {"tested_on": "Gram-negative bacteria E. Coli", "test": "Antimicrobial activity of coatings on PET surfaces against Gram-negative bacteria (CFU count)", "assay_type": "cell-based", "settings": "agent 5 mg/ml embedded in chitosan or alginate matrix, coated on PET; FIG. 5A", "description": "(§1) Air plasma was applied onto each surface for three (3) minutes prior to coating. The surfaces used in the Examples were polyethylene (PET) sheets. The coating composition was prepared by suspending polymer(s) in water together with the antimicrobial agent(s). The coating composition was then applied on the surface, forming a layer of about 25 µm, using BIUGED and BGD219 instruments in a speed of 6 mm/sec, as shown in FIG. 4. Each coating composition was prepared a few hours, or about 24 hours prior to being applied on the surface. The antimicrobial activity of several coatings was tested against Gram-negative bacteria E. Coli and Gram-positive bacteria Listeria (FIGS. 5A and 5B, respectively, n=3 per each test). Each test was repeated twice (suffix A and B; in FIGS. 5A to 5B)."}, "[2]": {"tested_on": "Gram-positive bacteria Listeria", "test": "Antimicrobial activity of coatings on PET surfaces against Gram-positive bacteria (CFU count)", "assay_type": "cell-based", "settings": "agent 5 mg/ml embedded in chitosan or alginate matrix, coated on PET; FIG. 5B", "description": "as §1"}}}
{"compound": "O=C1O[C@H]([C@@H](O)CO)C(O)=C1O", "note": "[ascorbic acid, Ascorbic acid]", "values": [{"measurement": "reduction of bacterial count (CFU)", "setting": "[1]", "value": "at least one order of magnitude"}, {"measurement": "reduction of viral count, as measured in colony-forming units (CFU)", "setting": "[2]", "value": "at least one order of magnitude"}]}
{"compound": "CCCCCCCCCCCC(=O)N[C@@H](CCCN=C(N)N)C(=O)OCC", "note": "[lauryl alginate, Lauryl alginate]", "values": [{"measurement": "reduction of bacterial count (CFU)", "setting": "[1]", "value": "at least one order of magnitude"}, {"measurement": "reduction of viral count, as measured in colony-forming units (CFU)", "setting": "[2]", "value": "at least one order of magnitude"}]}
{"compound": "Nisin", "values": [{"measurement": "reduction of viral count, as measured in colony-forming units (CFU)", "setting": "[2]", "value": "high cytotoxicity"}]}
